Here are results for one molecule from ChEMBL document CHEMBL5727906, “Adenosine A3 receptor modulators” (2020).

What is called Ki is the equilibrium dissociation constant of an inhibitor or competing ligand from its target.

In one test the target is T1, Adenosine receptor A1 (Homo sapiens, UniProt P30542).
T1 sequence (P30542 whole entry): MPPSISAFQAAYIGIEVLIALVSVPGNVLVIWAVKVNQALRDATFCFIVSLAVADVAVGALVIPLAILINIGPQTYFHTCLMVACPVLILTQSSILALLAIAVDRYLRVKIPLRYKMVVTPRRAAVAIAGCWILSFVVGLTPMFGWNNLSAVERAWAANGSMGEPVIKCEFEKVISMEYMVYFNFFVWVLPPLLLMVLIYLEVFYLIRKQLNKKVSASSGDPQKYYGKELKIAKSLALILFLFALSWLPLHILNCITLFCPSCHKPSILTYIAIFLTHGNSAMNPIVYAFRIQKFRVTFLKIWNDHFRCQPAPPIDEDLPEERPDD
The test is described as follows: Competition Radioligand Binding Assay: Adenosine A1 Receptor: Competition assays were carried out by incubation of human recombinant membranes of adenosine receptors from hA1 receptors transfected to CHO cells, [3H] DPCPX as radioligand, buffer (HEPES 20 mM (pH=7.4), 10 mM MgCl2, 100 mM NaCl, 2 U/mL of deaminase adenosine and non-labelled ligand in a total volume of 0.2 mL for 90 min at 25° C. R-PIA was used to determinate non-specific binding. Filter over Schleicher & Schuell GF/52 (pre-soaked 0.5% polyethylenimine) in a Brandel cell harvester. Unbound radioligand was removed with HEPES 30 mM (3×250 μl), NaCl (100 mM) and MgCl2 (10 mM).

A further test deals with Adenosine receptor A2a (Homo sapiens, UniProt P29274). The test is described as follows: Competition Radioligand Binding Assay: A2A Adenosine Receptor: Competitive assays were carried out by incubation of membranes from human A2A receptors transfected to HeLa cells, [3H]-ZM241385, buffer (Tris-HCl 50 mM (pH=7.4), 10 mM MgCl2, EDTA 1 mM and 2 units/ml adenosine deaminase), and unlabelled ligand in a total volume of 0.2 ml for 60 min at 25° C. NECA was used to determine nonspecific binding. It was filtered over Schleicher & Schuell GF/52 (presoaked with 0.5% polyethyleneimine) in a Brandel cell harvester. The unbound radioligand was removed with 3×250 μl of 20 mM Tris-HCl 50 mM (pH=7.4), 10 mM MgCl2, EDTA 1 mM.
Chain of Adenosine receptor A2a (P29274 whole entry): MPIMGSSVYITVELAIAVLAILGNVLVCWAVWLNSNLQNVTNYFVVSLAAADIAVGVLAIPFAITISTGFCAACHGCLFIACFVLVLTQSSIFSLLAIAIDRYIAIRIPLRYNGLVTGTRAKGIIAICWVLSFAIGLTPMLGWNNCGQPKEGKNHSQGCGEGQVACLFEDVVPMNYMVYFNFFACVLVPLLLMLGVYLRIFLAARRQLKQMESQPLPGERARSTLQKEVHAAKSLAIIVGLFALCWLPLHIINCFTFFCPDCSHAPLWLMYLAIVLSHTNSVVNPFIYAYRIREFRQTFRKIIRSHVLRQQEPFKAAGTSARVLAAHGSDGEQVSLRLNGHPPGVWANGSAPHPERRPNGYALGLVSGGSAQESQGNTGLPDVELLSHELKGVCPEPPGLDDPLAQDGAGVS

A further test has as its target T2, Adenosine receptor A2b (Homo sapiens, UniProt P29275).
T2 sequence (P29275 whole entry): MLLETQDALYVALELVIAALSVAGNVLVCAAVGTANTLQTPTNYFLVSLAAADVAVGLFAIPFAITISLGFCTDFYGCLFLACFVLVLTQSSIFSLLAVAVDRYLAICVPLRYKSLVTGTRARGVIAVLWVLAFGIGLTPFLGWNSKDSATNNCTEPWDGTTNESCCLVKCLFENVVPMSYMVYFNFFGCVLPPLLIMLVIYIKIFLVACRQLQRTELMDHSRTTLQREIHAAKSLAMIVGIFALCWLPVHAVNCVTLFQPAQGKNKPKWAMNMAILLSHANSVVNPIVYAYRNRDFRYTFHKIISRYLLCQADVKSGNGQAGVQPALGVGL
The test can be described thus: Competition Radioligand Binding Assay: A2B Adenosine Receptor: The binding assay for adenosine A2B receptor subtype was carried out on human recombinant source (HEK-293 cells) and [3H]DPCPX as radioligand.

The target in another test is T3, Adenosine receptor A3 (Homo sapiens, UniProt P0DMS8).
T3 sequence (P0DMS8 whole entry): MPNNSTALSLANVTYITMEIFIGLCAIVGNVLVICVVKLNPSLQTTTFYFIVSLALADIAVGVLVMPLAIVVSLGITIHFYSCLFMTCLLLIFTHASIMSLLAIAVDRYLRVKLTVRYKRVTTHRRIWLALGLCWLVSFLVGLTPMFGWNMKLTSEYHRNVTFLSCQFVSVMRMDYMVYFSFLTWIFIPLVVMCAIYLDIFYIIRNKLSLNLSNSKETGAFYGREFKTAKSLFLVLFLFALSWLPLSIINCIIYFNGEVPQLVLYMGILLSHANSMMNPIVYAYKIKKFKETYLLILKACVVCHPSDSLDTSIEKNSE
The test is described as follows: Competition Radioligand Binding Assay: A3 Adenosine Receptor:Competitive assays were carried out by incubation of membranes from human A3 receptors transfected to CHO cells, [3H]-NECA, buffer (20 mM HEPES (pH 7.4), 100 mM NaCl, 10 mM MgCl2, 2 units/ml adenosine deaminase), and unlabelled ligand in a total volume of 0.2 ml for 60 min at 25° C. R-PIA was used to determine nonspecific binding. It was filtered over Schleicher & Schuell GF/52 (presoaked with 0.5% polyethyleneimine) in a Brandel cell harvester. The unbound radioligand was removed with 3×250 μl of 20 mM HEPES (pH 7.4), 100 mM NaCl, 10 mM MgCl2.

Turning to `COc1ccc(-c2nc(NC(=O)c3ccc(N4CCC(C(=O)O)CC4)nc3)sc2C#N)cc1`, the Ki on Adenosine receptor A1 is over 1 µM; at Adenosine receptor A2a it was over 1 µM; at Adenosine receptor A2b, over 1 µM; at Adenosine receptor A3, 0.0476 µM.
